Laboratory results taken from patent publication US10085998B2, “Salts of potassium ATP channel openers and uses thereof” (Essentialis, Inc., priority 2006, dated 2018).
Converted amounts (≈) assume the structure as drawn. Structures can show the parent of a compound that is named as a salt. Where two headings read alike, the source gives them in different places.

Experiments:
[1] = Excipient compatibility study for diazoxide choline salt; format: physicochemical; conditions: excipient 100 mg + diazoxide choline salt 100 mg
[2] = Moisture sorption analysis; format: physicochemical; conditions: for Moisture sorption: hygroscopicity: relative humidity scan; for XRPD pattern following the moisture sorption/desorption analysis: after moisture sorption experiment; for Hysteresis upon desorption / hydrate formation: desorption scan
Protocol: Moisture Sorption Analysis was performed with a Hiden IGAsorp Moisture Sorption Instrument. Samples were first dried at 0% relative humidity at 25° C. until an equilibrium weight was reached, or for a maximum of 4 hours. Samples were then subjected to an isothermal (25° C.) scan from 10-90% relative humidity in steps of 10%. The samples were allowed to equilibrate to an asymptotic weight at each point for a maximum of 4 hours. Following absorption, a desorption scan from 85% relative humidity (at 25° C.) was run in steps of −10%, again allowing a maximum of 4 hours for the samples to equilibrate. The resulting samples after desorption were dried at 80° C. for two hours and analyzed by XRPD.

[3] = Solubility measurements at pH 2, 7 and 12 in phosphate buffer; conditions: solids after solubility analysis (choline salt: pH 2 and 7 only)
Protocol: (§1) Solubility concentrations were determined using area-percent calculations with HPLC calibration curves.

[4] = Form conversion and degradation under thermal stress
Protocol: Studies were also conducted to evaluate the likelihood for conversion and degradation under thermal stress.

[5] = Slurry studies (inter-conversion of the solid form)
Protocol: Slurry experiments were performed on each form to determine propensity for conversion and to see if a unique form could be generated.

[6] = all physiological relevant pH values from pH 2.0 to pH 8.5; deionized water, buffered aqueous solutions
Protocol: UV spectroscopy was performed with a Perkin-Elmer Lambda 25 spectrometer. Samples were dissolved in acetonitrile, water and a buffer system having a pH between 5.6 and 10. Spectra were acquired between 340 and 190 nm, using a 1 cm path length with background correction.

[7] = pH 2
Protocol: as §1

[8] = Additional solubility studies in 100 mM phosphate buffer (HPLC); format: physicochemical; conditions: pH 7.3, aqueous buffer, thermodynamic from solid, pH 7.30, pH after 18 h slurry 7.31, ambient temperature
Protocol: Each determination was carried out in duplicate, slurrying each sample in a 100 mM phosphate buffer solution, pH 7.00. […] After this time all samples were centrifuged, and the supernatant was diluted with mobile phase (MeCN/Water.).

[9] = Crystallization screening for polymorphic forms (single/binary solvent, fast/slow cooling, XRPD); format: physicochemical
physchem = conditions: thermodynamic from solid
Protocol: as §1

[10] = Solubility screen of diazoxide potassium salt in various solvents; format: physicochemical
From the text: Solvents affording poor to fair solubility were used as antisolvents in binary/ternary crystallizations as well as slurry studies. Table 29 summarizes the results of the solubility screen.

[11] = 60° C., closed, protected from light, 7 and 14 days
[12] = n-heptane, dichloromethane (CH2Cl2) and toluene, 7 and 14 days
[13] = 25° C., listed as Choline diazoxide salt
[14] = 25° C., listed as Potassium diazoxide salt

CC1=Nc2ccc(Cl)cc2S(=O)(=O)N1 [Diazoxide Control]
1 Month 40° C./75% RH % (w/w) ([1]; one-month storage 40° C./75% RH): 99.0 % (w/w)
1 Month 50° C. % (w/w) ([1]; one-month storage 50° C.): 99.4 % (w/w)

CC1=Nc2ccc(Cl)cc2S(=O)(=O)[N-]1.C[N+](C)(C)CCO [Form B]
Moisture sorption: hygroscopicity ([2]; 25° C.): Hygroscopic - deliquesced
Water absorbed at 60% RH ([2]; 25° C.): 7.4 wt %
XRPD pattern following the moisture sorption/desorption analysis [2]: remained in the Form B crystal structure
XRPD pattern of the solids obtained after the solubility analysis [3]: Form B of the choline salt of diazoxide was still present
Form conversion and degradation under thermal stress (XRPD, DSC) [4, 11]: Stable after 14 days at
Slurry study: conversion of solid form [5, 12]: form conversion was not observed

CC1=Nc2ccc(Cl)cc2S(=O)(=O)[N-]1.C[N+](C)(C)CCO [choline salt of diazoxide]
Hysteresis upon desorption / hydrate formation ([2]; 25° C.): does not form a stable hydrate
Hysteresis upon desorption / hydrate formation [2, 13]: no hysteresis
Moisture sorption: hygroscopicity ([2]; 25° C.): hygroscopic
Moisture sorption: hygroscopicity [2, 13]: deliquescent -
Water absorbed at 80% RH ([2]; 25° C., 80% RH): over 28 wt %
XRPD pattern following the moisture sorption/desorption analysis [2]: changed to an alternate crystalline form
Fate of the salt in aqueous medium (UV/Vis absorbance) [6]: hydrolyzes to the free base of diazoxide and choline hydroxide
Degradation by HPLC after thermal stress [4]: did not show any significant degradation
Form conversion and degradation under thermal stress (XRPD, DSC) [4]: consistent with the starting material, as well as the presence of additional unique peaks
XRPD pattern of the solids obtained after the solubility analysis [7]: changed back to the free form diazoxide material
Slurry study: conversion of solid form ([5]; n-heptane, dichloromethane (CH2Cl2) and toluene, 7 and 14 days, listed as Choline diazoxide salt): no propensity of inter-conversion

CC1=NS(=O)(=O)c2cc(Cl)ccc2N1 [free form diazoxide, 7-chloro-3-methyl-2H-1,2,4-benzothiadiazine 1, 1 dioxide, reference compound]
Hysteresis upon desorption / hydrate formation ([2]; 25° C.): does not form a stable hydrate
Hysteresis upon desorption / hydrate formation ([2]; 25° C., listed as Free form): no hysteresis
Moisture sorption: hygroscopicity ([2]; 25° C.): non-hygroscopic
Water absorbed at 60% RH ([2]; 25° C.): approximately 0.04 wt %
Water absorbed at 90% RH ([2]; 25° C.): ~0.20 wt %
XRPD pattern following the moisture sorption/desorption analysis [2]: same crystalline form
Form conversion and degradation under thermal stress (XRPD, DSC) [4, 11]: no conversion or degradation
solubility at 18 h [8]: 70 µg/mL (≈ 303 µM)
Slurry study: conversion of solid form ([5]; room temperature, no light, water, isopropyl alcohol, dichloromethane and toluene, 14 days): did not convert to alternate crystal forms

CC1=NS(=O)(=O)c2cc(Cl)ccc2N1 [potassium salt of diazoxide]
Hysteresis upon desorption / hydrate formation ([2]; 25° C.): hemihydrate from 0-30% RH and a monohydrate from 35-75% RH
Hysteresis upon desorption / hydrate formation [2, 14]: hemi/monohydrate
Moisture sorption: hygroscopicity ([2]; 25° C.): hygroscopic
Moisture sorption: hygroscopicity [2, 14]: deliquescent -
Water absorbed at 60% RH ([2]; 25° C.): 5.4 wt %
Water absorbed at 90% RH ([2]; 25° C.): 38.3 wt %
XRPD pattern following the moisture sorption/desorption analysis [2]: changed to an alternate crystalline form
Form ([9]; XRPD, single-solvent, fast-cooling, MeCN, 42.40 mg/mL, 80 ° C.): C +
Precipitate ([9]; binary-solvent, fast-cooling, McCN 0.6 mL (dissolved at 80° C.), anti-solvent CH2Cl2 1.0 mL): Yes
Precipitate ([9]; binary-solvent, fast-cooling, McCN 0.6 mL (dissolved at 80° C.), anti-solvent Dioxane 6.0 mL): Yes
Precipitate ([9]; binary-solvent, fast-cooling, McCN 0.6 mL (dissolved at 80° C.), anti-solvent EtOAc 6.0 mL): Yes
Precipitate ([9]; binary-solvent, fast-cooling, McCN 0.6 mL (dissolved at 80° C.), anti-solvent Heptane 2.0 mL): Yes
Precipitate ([9]; binary-solvent, fast-cooling, McCN 0.6 mL (dissolved at 80° C.), anti-solvent IPAc 3.0 mL): Yes
Precipitate ([9]; binary-solvent, fast-cooling, McCN 0.6 mL (dissolved at 80° C.), anti-solvent MTBE 1.0 mL): Yes
Precipitate ([9]; binary-solvent, fast-cooling, McCN 0.6 mL (dissolved at 80° C.), anti-solvent THF 6.0 mL): No/Evap.
Precipitate ([9]; binary-solvent, fast-cooling, McCN 0.6 mL (dissolved at 80° C.), anti-solvent Toluene 1.0 mL): Yes
Precipitate ([9]; binary-solvent, fast-cooling, McCN 0.6 mL (dissolved at 80° C.), anti-solvent c-Hexane 2.0 mL): Yes
Precipitate ([9]; single-solvent, fast-cooling, Acetone, 10.35 mg/mL, 55 ° C.): No/Evap
Precipitate ([9]; single-solvent, fast-cooling, EtOAc, 3.52 mg/mL, 75 ° C.): Yes
Precipitate ([9]; single-solvent, fast-cooling, IPA, 75.67 mg/mL, 62 ° C.): Yes
Precipitate ([9]; single-solvent, fast-cooling, MeCN, 42.40 mg/mL, 80 ° C.): Yes
Precipitate ([9]; single-solvent, fast-cooling, Water, 13.73 mg/mL, 95 ° C.): Yes
Precipitate ([9]; single-solvent, fast-cooling, i-AmOH, 65.67 mg/mL, 73 ° C.): Yes
Precipitate ([9]; single-solvent, fast-cooling, t-AmOH, 8.76 mg/mL, 95 ° C.): Yes
Precipitate ([9]; single-solvent, slow-cooling, IPA, 71.67 mg/mL, 80 ° C.): No/Evap
Precipitate ([9]; single-solvent, slow-cooling, MeCN, 45.60 mg/mL, 80 ° C.): Yes
Precipitate ([9]; single-solvent, slow-cooling, i-AmOH, 68.67 mg/mL, 80 ° C.): Yes
Degradation by HPLC after thermal stress ([4]; 60° C., 14 days, gradient area percent assay): did not show any significant degradation
Form conversion and degradation under thermal stress (XRPD, DSC) [4, 11]: showed unique peaks
XRPD pattern of the solids obtained after the solubility analysis [7]: changed back to the free form diazoxide material
Slurry study: conversion of solid form [5, 12]: no propensity of inter-conversion
Degradation by HPLC after slurry study ([5]; n-heptane, dichloromethane, toluene, gradient area percent assay): did not show any significant degradation
solubility (physchem; pH 2, aqueous buffer): 9.9 mg/mL
solubility (physchem; pH 7, aqueous buffer): 14.4 mg/mL
solubility (physchem; pH 12, aqueous buffer): 43 mg/mL
Conc. ([10]; solvent Acetone, 55 ° C., 1.6 mg in 4.00 mL): 0.40 mg/mL
Soluble ([10]; solvent Acetone, 55 ° C., at 0.40 mg/mL): Yes
Conc. ([10]; solvent CH2Cl2, 55 ° C., 1.3 mg in 5.00 mL): 0.26 mg/mL
Soluble ([10]; solvent CH2Cl2, 55 ° C., at […]): No
Conc. ([10]; solvent DMF, rt, 1.6 mg in 0.25 mL): >6.40 mg/mL
Soluble ([10]; solvent DMF, rt, at >6.40 mg/mL): Yes
Conc. ([10]; solvent Dioxane, 55 ° C., 1.4 mg in 5.00 mL): 0.28 mg/mL
Soluble ([10]; solvent Dioxane, 55 ° C., at […]): No
Conc. ([10]; solvent EtOAc, 55 ° C., 1.8 mg in 5.00 mL): 0.36 mg/mL
Soluble ([10]; solvent EtOAc, 55 ° C., at […]): No
Conc. ([10]; solvent EtOH, 55 ° C., 2.2 mg in 0.75 mL): 2.93 mg/mL
Soluble ([10]; solvent EtOH, 55 ° C., at […]): Yes
Conc. ([10]; solvent Heptane, 55 ° C., 1.2 mg in 5.00 mL): 0.24 mg/mL
Soluble ([10]; solvent Heptane, 55 ° C., at 0.24 mg/mL): No
Conc. ([10]; solvent IPA, 55 ° C., 2.1 mg in 1.00 mL): 2.10 mg/mL
Soluble ([10]; solvent IPA, 55 ° C., at […]): Yes
Conc. ([10]; solvent IPAc, 55 ° C., 1.7 mg in 5.00 mL): 0.34 mg/mL
Soluble ([10]; solvent IPAc, 55 ° C., at […]): No
Conc. ([10]; solvent MEK, 55 ° C., 1.5 mg in 5.00 mL): 0.30 mg/mL
Soluble ([10]; solvent MEK, 55 ° C., at 0.30 mg/mL): Partially
Conc. ([10]; solvent MTBE, 55 ° C., 1.8 mg in 5.00 mL): 0.36 mg/mL
Soluble ([10]; solvent MTBE, 55 ° C., at […]): No
Conc. ([10]; solvent MeCN, 55 ° C., 1.7 mg in 2.00 mL): 0.85 mg/mL
Soluble ([10]; solvent MeCN, 55 ° C., at 0.85 mg/mL): Yes
Conc. ([10]; solvent MeOH, 55 ° C., 1.5 mg in 0.25 mL): 6.00 mg/mL
Soluble ([10]; solvent MeOH, 55 ° C., at 6.00 mg/mL): Yes
Conc. ([10]; solvent THF, 55 ° C., 1.8 mg in 5.00 mL): 0.36 mg/mL
Soluble ([10]; solvent THF, 55 ° C., at […]): Partially
Conc. ([10]; solvent Toluene, 55 ° C., 1.4 mg in 5.00 mL): 0.28 mg/mL
Soluble ([10]; solvent Toluene, 55 ° C., at […]): No
Conc. ([10]; solvent Water, 55 ° C., 1.5 mg in 5.00 mL): 0.30 mg/mL
Soluble ([10]; solvent Water, 55 ° C., at 0.30 mg/mL): No
Conc. ([10]; solvent c-Hexane, 55 ° C., 1.5 mg in 5.00 mL): 0.30 mg/mL
Soluble ([10]; solvent c-Hexane, 55 ° C., at 0.30 mg/mL): No
